Data from patent US20230011869A1 (Hoffmann-La Roche Inc., priority 2018, published 2023).
Structures can show the parent of a compound that is named as a salt. Where two headings read alike, the source gives them in different places.

Test system: Acinetobacter baumannii ATCC17978
Test: Antimicrobial susceptibility testing: 90% growth inhibitory concentration (IC90) determination, Iso-Sensitest broth
Assay type: cell-based
How it was run: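 A. baumannii ATCC17978 grown in Iso-Sensitest broth across 10 compound concentrations at 35±2 °C.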

[1] = Acinetobacter baumannii, ATCC17978, 16 h, read-out: ATCC17978 IC90, 90% growth inhibitory concentration, Acinetobacter baumannii ATCC17978, Iso-Sensitest broth, OD 600 nm over 16 h
[2] = 90% growth inhibitory concentration, Acinetobacter baumannii ATCC17978, Iso-Sensitest broth, OD 600 nm over 16 h, read-out: ATCC17978 IC90

IC90 [2] [nM] | Structure (SMILES) | IC90 [1] [nM]
 | COc1ccc(-c2cnc3c(Nc4ccc(C(=O)N5CCN(C(=O)[C@@H]6C[C@@H](O)CN6)CC5)c(C)c4)nccn23)c(Cl)c1F [Example 476, [4-[[3-(2-chloro-3-fluoro-4-methoxyphenyl)imidazo[1,2-a]pyrazin-8-yl]amino]-2-methylphenyl]-[4-[(2S,4R)-4-hydroxypyrrolidine-2-carbonyl]piperazin-1-yl]methanone; formic acid] | 100
1300 | COc1ccc(-c2cnc3c(Nc4ccc(C(=O)N5CCN(C)CC5)c(C)c4)nccn23)cc1Cl [Example 22, (4-((3-(3-chloro-4-methoxyphenyl)imidazo[1,2-a]pyrazin-8-yl)amino)-2-methylphenyl)(4-methylpiperazin-1-yl)methanone] | 
94 | COc1ccc(-c2cnc3c(Nc4ccc(C(=O)N5CCN(C(=O)[C@H]6CCNC6)CC5)c(C)c4)nccn23)c(Cl)c1F [Example 210, [4-[[3-(2-chloro-3-fluoro-4-methoxy-phenyl)imidazo[1,2-a]pyrazin-8-yl]amino]-2-methyl-phenyl]-[4-[(3S)-pyrrolidine-3-carbonyl]piperazin-1-yl]methanone formate] | 
 | Cc1cc(Nc2nccn3c(-c4ccc(OC(F)F)cc4)cnc23)ccc1C(=O)N1CCC(C(=O)N2CCOC(CN)C2)CC1 (stereo not shown) [Example 43, (4-(2-(aminomethyl)morpholine-4-carbonyl)piperidin-1-yl)(4-((3-(4-(difluoromethoxy)phenyl)imidazo[1,2-a]pyrazin-8-yl)amino)-2-methylphenyl)methanone hydrochloride] | 220
180 | CNCCNC(=O)C1CCN(C(=O)c2ccc(Nc3nccn4c(-c5ccc(OC)c(Cl)c5)cnc34)cc2C)CC1 [Example 112, 1-(4-((3-(3-chloro-4-methoxyphenyl)imidazo[1,2-a]pyrazin-8-yl)amino)-2-methylbenzoyl)-N-(2-(methylamino)ethyl)piperidine-4-carboxamide hydrochloride] | 
71 | COc1ccc(-c2cnc3c(Nc4ccc(C(=O)N5CCC(C(=O)NCC6(O)CNC6)CC5)c(C)c4)nccn23)c(F)c1F [Example 285, 1-[4-[[3-(2,3-difluoro-4-methoxyphenyl)imidazo[1,2-a]pyrazin-8-yl]amino]-2-methylbenzoyl]-N-[(3-hydroxyazetidin-3-yl)methyl]piperidine-4-carboxamide] | 
 | CCNCC(=O)N1CCN(C(=O)c2ccc(Nc3nccn4c(-c5ccc(OC(F)F)cc5)cnc34)cc2C)CC1 [Example 314, 1-[4-[4-[[3-[4-(difluoromethoxy)phenyl]imi-dazo[1,2-a]pyrazin-8-yl]amino]-2-methylbenzoyl]piperazin-1-yl]-2-(ethylamino)ethanone; hydro-chloride] | 230
 | Cc1cc(Nc2nccn3c(-c4ccc(OC(F)F)cc4)cnc23)ccc1C(=O)N1CCN(C(=O)[C@@H](N)[C@@H](C)O)CC1 [Example 527, (2S,3R)-2-amino-1-[4-[4-[[3-[4-(difluoromethoxy)phenyl]imi-dazo[1,2-a]pyrazin-8-yl]amino]-2-methylbenzoyl]piperazin-1-yl]-3-hydroxybutan-1-one; hydrochloride] | 600
 | COc1ccc(-c2cnc3c(Nc4ccc(C(=O)N5CCN(C(=O)N6CCN[C@@H](C(=O)O)C6)CC5)c(C)c4)nccn23)c(F)c1F [Example 436, (2R)-4-[4-[4-[[3-(2,3-difluoro-4-methoxyphenyl)imidazo[1,2-a]pyrazin-8-yl]amino]-2-methylbenzoyl]piperazine-1-carbonyl]piperazine-2-carboxylic acid; formic acid] | 760
 | Cc1cc(Nc2nccn3c(-c4ccc(OC(F)F)cc4)cnc23)ccc1C(=O)N1CCC(C(=O)N[C@@H]2CCNC2)CC1 [Example 263, 1-[4-[[3-[4-(difluoromethoxy)phenyl]imi-dazo[1,2-a]pyrazin-8-yl]amino]-2-methylbenzoyl]-N-[(3R)-pyrrolidin-3-yl]piperidine-4-carboxamide; hydrochloride] | 1100
 | Cc1cc(Nc2nccn3c(-c4ccc(OC(F)F)cc4)cnc23)ccc1C(=O)N1CCN(C(=O)c2cccc(C(=O)O)c2)CC1 [Example 277, 3-[4-[4-[[3-[4-(difluoromethoxy)phenyl]imi-dazo[1,2-a]pyrazin-8-yl]amino]-2-methylbenzoyl]piperazine-1-carbonyl]benzoic acid] | 3800
140 | COc1ccc(-c2cnc3c(Nc4ccc(C(=O)N5CCC(C(=O)NCCN(C)C)CC5)c(C)c4)nccn23)cc1F [Example 47, N-[2-(dimethylamino)ethyl]-1-[4-[[3-(3-fluoro-4-methoxyphenyl)imidazo[1,2-a]pyrazin-8-yl]amino]-2-methylbenzoyl]piperidine-4-carboxamide] | 
 | COc1ccc(-c2cnc3c(Nc4ccc(C(=O)N5CCC(C(=O)NC6CNC6)CC5)c(C)c4)nccn23)cc1F [Example 57, N-(azetidin-3-yl)-1-(4-((3-(3-fluoro-4-methoxyphenyl)imidazo[1,2-a]pyrazin-8-yl)amino)-2-methylbenzoyl)piperidine-4-carboxamide 2,2,2-trifluoroacetate] | 250
 | Cc1cc(Nc2nccn3c(-c4ccc(OC(F)F)cc4)cnc23)ccc1C(=O)N1CCC(C(=O)NC[C@H]2CNC(=O)O2)CC1 [Example 298, 1-[4-[[3-[4-(difluoromethoxy)phenyl]imi-dazo[1,2-a]pyrazin-8-yl]amino]-2-methylbenzoyl]-N-[[(5S)-2-oxo-1,3-oxazolidin-5-yl]methyl]piperidine-4-carboxamide] | 200
 | COc1ccc(-c2cnc3c(Nc4ccc(C(=O)N5CCN(C(=O)[C@@H]6C[C@@H](OC(=O)[C@@H](N)CCCCN)CN6)CC5)c(C)c4)nccn23)c(F)c1F [Example 561, [(3R,5S)-5-[4-[4-[[3-(2,3-difluoro-4-methoxy-phenyl)imidazo[1,2-a]pyrazin-8-yl]amino]-2-methyl-benzoyl]piperazine-1-carbonyl]pyrrolidin-3-yl] (2S)-2,6-diaminohexanoate formate] | 123
370 | CCc1cc(Nc2nccn3c(-c4ccc(OC)c(F)c4)cnc23)ccc1C(=O)N1CCN(C(=O)CNC)CC1 [Example 398, 1-[4-[2-ethyl-4-[[3-(3-fluoro-4-methoxyphenyl)imidazo[1,2-a]pyrazin-8-yl]amino]benzoyl]piperazin-1-yl]-2-(methylamino)ethanone; hy-drochloride] | 
 | COc1ccc(-c2cnc3c(Nc4ccc(C(=O)N5CCC(CNCC(=O)O)CC5)c(C)c4)nccn23)cc1 [Example 431, formic acid; 2-[[1-[4-[[3-(4-methoxyphenyl)imidazo[1,2-a]pyrazin-8-yl]amino]-2-methylbenzoyl]piperidin-4-yl]methylamino]acetic acid] | 1500
190 | COc1ccc(-c2cnc3c(Nc4ccc(C(=O)N5CCN(C(=O)N6CCO[C@H](CN)C6)CC5)c(C)c4)nccn23)c(F)c1F [Example 140, [4-[(2R)-2-(aminomethyl)morpholine-4-carbonyl]piperazin-1-yl]-[4-[[3-(2,3-difluoro-4-methoxy-phenyl)imidazo[1,2-a]pyrazin-8-yl]amino]-2-methyl-phenyl]methanone formate] | 
 | COc1ccc(-c2cnc3c(Nc4ccc(C(=O)N5CCN(C(=O)[C@H](CCCN)NC(=O)CC[C@H](N)C(=O)O)CC5)c(C)c4)nccn23)c(F)c1F [Example 533, (2S)-2-amino-5-[[(2S)-5-amino-1-[4-[4-[[3-(2,3-difluoro-4-methoxyphenyl)imidazo[1,2-a]pyrazin-8-yl]amino]-2-methylbenzoyl]piperazin-1-yl]-1-oxopentan-2-yl]amino]-5-oxopentanoic acid; hydrochloride] | 1500
1100 | COc1ccc(-c2cnc3c(Nc4ccc(C(=O)N5CCOC(CN(C)C)C5)c(C)c4)nccn23)cc1F (stereo not shown) [Example 23, [2-[(dimethylamino)methyl]morpholin-4-yl]-[4-[[3-(3-fluoro-4-methoxy-phenyl)imidazo[1,2-a]pyrazin-8-yl]amino]-2-methyl-phenyl]methanone;2,2,2-trifluoroacetic acid] | 
2700 | CCc1cc(Nc2nccn3c(-c4ccc(OS(C)(=O)=O)c(F)c4F)cnc23)ccc1C(=O)N1CCN(C(=O)C2CCNCC2)CC1 [Example 451, [4-[8-[3-ethyl-4-[4-(piperidine-4-carbonyl)piperazine-1-carobnyl]anilino]imidazo[1,2-a]pyrazin-3-yl]-2,3-difluorophenyl] methanesulfonate; formic acid] | 
 | COc1ccc(-c2cnc3c(Nc4ccc(C(=O)N5CCN(C(=O)N[C@@H](C)CN)CC5)c(C)c4)nccn23)c(Cl)c1F [Example 478, formic acid] | 130
330 | COc1ccc(-c2cnc3c(Nc4ccc(C(=O)N5CCC(c6nncn6C)CC5)c(C)c4)nccn23)cc1F [Example 357, [4-[[3-(3-fluoro-4-methoxyphenyl)imidazo[1,2-a]pyrazin-8-yl]amino]-2-methylphenyl]-[4-(4-methyl-1,2,4-triazol-3-yl)piperidin-1-yl]methanone] | 
160 | Cc1cc(Nc2nccn3c(-c4ccc(OC(F)F)cc4)cnc23)ccc1C(=O)N1CCN(C(=O)NC2CCNCC2)CC1 [Example 143, 4-[4-[[3-[4-(difluoromethoxy)phenyl]imidazo[1,2-a]pyrazin-8-yl]amino]-2-methyl-benzoyl]-N-(4-piperidyl)piperazine-1-carboxamide hydrochloride] | 
2300 | COc1ccc(-c2cnc3c(Nc4ccc(C(=O)N5CCN(C(=O)C(CC(=O)O)NC(=O)[C@@H](N)CCCCN)CC5)c(C)c4)nccn23)c(F)c1F (mixture of isomers) [Example 534, 4-[4-[4-[[3-(2,3-difluoro-4-methoxyphenyl)imidazo[1,2-a]pyrazin-8-yl]amino]-2-methylbenzoyl]piperazin-1-yl]-4-oxo-3-[[rac-(2R)-2,6-diaminohexanoyl]amino]bu-tanoic acid; hydrochloride] | 
